Source: patent US20230348564A1, “ANTI-CANCER PROTEINS” (UNICHEM LABORATORIES LTD, priority 2020, published 2023)

Experiments:
[1] = system: Glioma (C6); experiment: cytotoxicity in Brain Tumor Cell lines by MTT assay; assay type: cell-based, Rat; settings: 0.1 Mm-100 μM, 72 h
Description: The SEQ ID NO. […] Untreated cells were used as control. […] Cells were incubated for 3 h at 37° C.

[2] = system: Contactin-1; experiment: biomarker levels in IOMM-Lee by multiplex analysis; assay type: cell-based, Human
From the text: (§1) Effect of SEQ ID No 2 on the expression of following 7 biomarkers were estimated in Human Meningioma cell line (IOMM-Lee) using multiplex analysis: TNF-alpha, VEGF, VEGFR2, HGF, HGFR/c-MET, PDGF-BB, and Contactin-1. Levels of another marker, Notch-1 were also estimated by ELISA in the same cell line. These 8 biomarkers play very crucial role in the pathogenesis and progression of Brain Tumor. […] Supernatants were collected and the levels of these 8 markers were investigated.

[3] = system: HGFR/c-MET; experiment: biomarker levels in IOMM-Lee by multiplex analysis; assay type: cell-based, Human
From the text: as §1

[4] = system: HGF; experiment: biomarker levels in IOMM-Lee by multiplex analysis; assay type: cell-based, Human
From the text: as §1

[5] = system: PDGF-BB; experiment: biomarker levels in IOMM-Lee by multiplex analysis; assay type: cell-based, Human
From the text: as §1

[6] = system: TNF-α; experiment: biomarker levels in IOMM-Lee by multiplex analysis; assay type: cell-based, Human
From the text: as §1

[7] = system: VEGFR2; experiment: biomarker levels in IOMM-Lee by multiplex analysis; assay type: cell-based, Human
From the text: as §1

[8] = system: VEGF; experiment: biomarker levels in IOMM-Lee by multiplex analysis; assay type: cell-based, Human
From the text: as §1

[9] = system: Notch-1; experiment: biomarker levels in IOMM-Lee by ELISA; assay type: cell-based, Human; settings: 1 μM
From the text: as §1

[10] = system: A549 (Human lung carcinoma); experiment: Calcein AM cytotoxicity assay; settings: SEQ ID 2 80 μg/mL, doxorubicin 100 μM; 48h
Description: (§2) All the cancer cell lines were procured from National Centre for Cell Science, Pune (India). The cell lines were maintained under conditions as described in Table 21 below. The cell lines were sub-cultured by trypsinization followed by splitting the cell suspension into fresh flasks and supplementing with fresh culture medium.
(§3) All the cell lines were grown in specified media at 37° C. with 95% Humidity and […].
(§4) The cells were trypsinized, counted by Trypan blue method in Neuebauer's Chamber and plated in wells of flat bottom 96-well plate (dark walled plate, flat bottom) at the density corresponding to 10×10^3 cells/well/180 μl medium.
(§5) Following overnight incubation, the cells were treated with test item (20 μL) at concentrations ranging from 2.5-80 μg/mL, so that the total volume in each well is 200 μL.
(§6) The cells were incubated with the test items or positive control for a time period of 48h. Following incubation, the cell cytotoxicity was estimated using Calcein AM Cell Viability Assay Kit from R&D systems (Cat No. 4892-010-K).
(§7) Fluorescence was measured at 485 nm (excitation/528 run (emission) spectra using Synergy HT micro plate reader.
(§8) Percentage cytotoxicity wrt untreated cells was calculated using formula:
(§9) Cytotoxicity=[(RFUuntreated−RFUsample)/RFUuntreated]*100
(§10) RFU: relative fluorescence units
(§11) IC50 value was calculated using Graph-Pad Prism version 4.01 software.

[11] = system: AGS (Human stomach adenocarcinoma); experiment: Calcein AM cytotoxicity assay; settings: SEQ ID 2 80 μg/mL, doxorubicin 100 μM; 48h
Description: as §2, §3, §4, §5, §6, §7, §8, §9, §10, §11

[12] = system: HT-29 (Human Colorectal adenocarcinoma); experiment: Calcein AM cytotoxicity assay; settings: SEQ ID 2 80 μg/mL, doxorubicin 100 μM; 48h
Description: as §2, §3, §4, §5, §6, §7, §8, §9, §10, §11

[13] = system: Human Primary mammary epithelial (HMEC) cells; experiment: Calcein AM cytotoxicity assay; settings: SEQ ID 2 80 μg/mL, doxorubicin 100 μM; 48h
Description: as §2, §3, §4, §5, §6, §7, §8, §9, §10, §11

[14] = system: KB (Human cervical carcinoma); experiment: Calcein AM cytotoxicity assay; settings: SEQ ID 2 80 μg/mL, doxorubicin 100 μM; 48h
Description: as §2, §3, §4, §5, §6, §7, §8, §9, §10, §11

[15] = system: MCF-10A (Human mammary epithelial cells); experiment: Calcein AM cytotoxicity assay; settings: SEQ ID 2 80 μg/mL, doxorubicin 100 μM; 48h
Description: as §2, §3, §4, §5, §6, §7, §8, §9, §10, §11

[16] = system: MCF-7 (Human breast adenocarcinoma); experiment: Calcein AM cytotoxicity assay; settings: SEQ ID 2 80 μg/mL, doxorubicin 100 μM; 48h
Description: as §2, §3, §4, §5, §6, §7, §8, §9, §10, §11

[17] = system: PA-1 (Human Ovary carcinoma); experiment: Calcein AM cytotoxicity assay; settings: SEQ ID 2 80 μg/mL, doxorubicin 100 μM; 48h
Description: as §2, §3, §4, §5, §6, §7, §8, §9, §10, §11

[18] = system: PBMCs (Peripheral blood mononuclear cells); experiment: Calcein AM cytotoxicity assay; settings: SEQ ID 2 80 μg/mL, doxorubicin 100 μM; 48h
Description: as §2, §3, §4, §5, §6, §7, §8, §9, §10, §11

[19] = system: PC-3 (Human Prostate Cancer); experiment: Calcein AM cytotoxicity assay; settings: SEQ ID 2 80 μg/mL, doxorubicin 100 μM; 48h
Description: as §2, §3, §4, §5, §6, §7, §8, §9, §10, §11

[20] = system: SK-Mel-28 (Human melanoma); experiment: Calcein AM cytotoxicity assay; settings: SEQ ID 2 80 μg/mL, doxorubicin 100 μM; 48h
Description: as §2, §3, §4, §5, §6, §7, §8, §9, §10, §11

[21] = system: SKOV-3 (Human Ovary adenocarcinoma); experiment: Calcein AM cytotoxicity assay; settings: SEQ ID 2 80 μg/mL, doxorubicin 100 μM; 48h
Description: as §2, §3, §4, §5, §6, §7, §8, §9, §10, §11

[22] = system: SW620 (Human Colorectal adenocarcinoma); experiment: Calcein AM cytotoxicity assay; settings: SEQ ID 2 80 μg/mL, doxorubicin 100 μM; 48h
Description: as §2, §3, §4, §5, §6, §7, §8, §9, §10, §11

[23] = system: SiHa (Human cervix squamous cell carcinoma); experiment: Calcein AM cytotoxicity assay; settings: SEQ ID 2 80 μg/mL, doxorubicin 100 μM; 48h
Description: as §2, §3, §4, §5, §6, §7, §8, §9, §10, §11

[24] = system: THP-1 (Human acute monocytic leukemia); experiment: Calcein AM cytotoxicity assay; settings: SEQ ID 2 80 μg/mL, doxorubicin 100 μM; 48h
Description: as §2, §3, §4, §5, §6, §7, §8, §9, §10, §11

[25] = system: ZR-75-1 (Human ductal carcinoma); experiment: Calcein AM cytotoxicity assay; settings: SEQ ID 2 80 μg/mL, doxorubicin 100 μM; 48h
Description: as §2, §3, §4, §5, §6, §7, §8, §9, §10, §11

[26] = system: Meningioma (IOMM-Lee); experiment: cytotoxicity in Brain Tumor Cell lines by MTT assay; settings: 0.1 Mm-100 μM, 72 h
[27] = system: Astrocytoma (U87MG); experiment: as above; settings: 0.1 Mm-100 μM, 72 h

In the case of `COc1cccc2c1C(=O)c1c(O)c3c(c(O)c1C2=O)C[C@@](O)(C(=O)CO)C[C@@H]3O[C@H]1C[C@H](N)[C@H](O)[C@H](C)O1` [Doxorubicin, reference compound], the “% of cytotoxicity” value [1] is reported as 57.8%-86.3%, the “Percentage inhibition on levels of Contactin-1” value ([2]; 1 μM) is reported as 50% and the “Percentage inhibition on levels of Contactin-1” value ([2]; 10 μM) is reported as 23.3%. The “Percentage inhibition on levels of HGFR/c-MET” value ([3]; 1 μM) was 45.5%, the “Percentage inhibition on levels of HGFR/c-MET” value ([3]; 10 μM) was 55.2% and the “Percentage inhibition on levels of HGF” value ([4]; 1 μM) was 45.3%. For the same compound, the “Percentage inhibition on levels of HGF” value ([4]; 10 μM) was 84%, the “Percentage inhibition on levels of PDGF-BB” value ([5]; 1 μM) was 12% and the “Percentage inhibition on levels of PDGF-BB” value ([5]; 10 μM) was 100%. For the same compound, the “Percentage inhibition on levels of TNF-α” value ([6]; 1 μM) was 67.8%, the “Percentage inhibition on levels of TNF-α” value ([6]; 10 μM) was 42.3% and the “Percentage inhibition on levels of VEGFR2” value ([7]; 1 μM) was 38.2%. The “Percentage inhibition on levels of VEGFR2” value ([7]; 10 μM) was 50.1%, the “Percentage inhibition on levels of VEGF” value ([8]; 1 μM) was 53% and the “Percentage inhibition on levels of VEGF” value ([8]; 10 μM) was 93.4%. The “Percentage inhibition on levels of Notch-1” value [9] was 8%, the “Cytotoxicity at highest concentration tested” value [10] was 78.4% and the “Cytotoxicity at highest concentration tested” value [11] was 81.0%. The “Cytotoxicity at highest concentration tested” value [12] was 75.0%, the “Cytotoxicity at highest concentration tested” value [13] was 87.6% and the “Cytotoxicity at highest concentration tested” value [14] was 92.0%. The “Cytotoxicity at highest concentration tested” value [15] was 93.8%, the “Cytotoxicity at highest concentration tested” value [16] was 60.7% and the “Cytotoxicity at highest concentration tested” value [17] was 82.3%. The “Cytotoxicity at highest concentration tested” value [18] was 64.3%, the “Cytotoxicity at highest concentration tested” value [19] was 75.3% and the “Cytotoxicity at highest concentration tested” value [20] was 65.9%. The “Cytotoxicity at highest concentration tested” value [21] was 61.74%, the “Cytotoxicity at highest concentration tested” value [22] was 93.5% and the “Cytotoxicity at highest concentration tested” value [23] was 87.2%. The “Cytotoxicity at highest concentration tested” value [24] was 33.6%, the “Cytotoxicity at highest concentration tested” value [25] was 52.6% and the “% of cytotoxicity” value [26] was 46.6%-54.5%. The “% of cytotoxicity” value [27] was 46.6%-72.4%.
